Laboratory results taken from patent publication US7468449B2, “Phenyl-furan compounds as vitamin D receptor modulators” (Eli Lilly and Company, priority 2003, dated 2008).
pEC50, pIC50: −log10 of the molar value. Several values for one entry are separate records, joined by “and”; a condition that tells them apart may be missing. Identical values can stand only once. Like-named read-outs stand apart in the source and are kept apart here.

How the values were obtained:
rat osteocalcin promoter = test: OCN (osteocalcin) promoter assay; assay type: cell-based; conditions: RG-15 (ROS 17/2.8) cells, 48 hr treatment
Procedure: 3. The OCN (osteocalcin) Promoter Assay
The OCN Promoter Assay is an indicator and marker for osteoporosis. […] Preferred assay results are less than 50 nM.
(3) Materials and Method for The OCN Promoter Assay:
The activation of osteocalcin by VDR ligands was evaluated in a rat osteoblast-like cell line RG-15 (ROS 17/2.8) stably expressing rat osteocalcin promoter fused with luciferase reporter gene. […] After 24 hr, cells (in DMEM/F-12 medium +2% FBS) were treated with various concentrations of compounds, dissolved in DMSO. The final DMSO concentration remained at 0.01% (v/v). After 48 hr treatment, the medium was removed, cells were lysed with 50 μl of lysis buffer (From Luciferase reporter assay system, Roche Diagnostics, Indianapolis, Ind.) and assayed for luciferase activity using the Luciferase Reporter Gene Assay kit from Boehringer Mannheim as per manufacturer's specifications.

VDR = target: T1, VDR (Homo sapiens, UniProt P11473); test: VDR CTF (Caco-2 cell co-transfection) assay; assay type: cell-based; conditions: Caco-2 cells, Gal-4-VDR-LBD co-transfection; Table 1
T1 construct: the receptor expression vector pGal-4-VDR-LBD (10 ng); expressed in transfected cells; host or cells: Caco-2 cells
T1 sequence (P11473 127-423 limits assumed): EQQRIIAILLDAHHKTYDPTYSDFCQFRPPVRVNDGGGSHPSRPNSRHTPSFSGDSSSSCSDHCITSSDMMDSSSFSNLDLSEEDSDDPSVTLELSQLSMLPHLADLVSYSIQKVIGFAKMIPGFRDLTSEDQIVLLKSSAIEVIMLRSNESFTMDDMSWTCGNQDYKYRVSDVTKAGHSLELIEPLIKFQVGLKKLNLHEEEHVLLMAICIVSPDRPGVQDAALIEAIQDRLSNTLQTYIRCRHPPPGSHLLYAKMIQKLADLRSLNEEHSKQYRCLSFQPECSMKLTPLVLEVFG
Procedure: 2. The Caco-2 Cell Co-transfection Assay:
The Caco-2 cell assay is an indicator for the undesirable condition of hypercalcemia. This co-transfection assay is a surrogate assay for in vivo calcemic activity of VDR ligands. […] Preferred assay results are greater than 1000 nM.
(§1) Step 4: FuGENE, DNA and Media Complex to-well plate • Add FuGENE-DNA-Media complex from step 3 to each plate • Incubate. […] Day 4: Luciferase Assay • Read the plates after drug treatment • Remove part of media from all the wells and leave remainder • Add Steady-Glo Luciferase Reagent mixture/wells • Incubate • Count each well using a Luminescence counter, Top Count NXT by Packard Set a delay between plates to reduce the background. (2) Materials and Method for The Caco-2 Cell Assay:
Caco-2 cells, grown in phenol red free, DMEM (Invitrogen, Carlsbad, Calif.) containing 10% charcoal-stripped FCS (Hyclone, Logan, Utah), were transfected with Fugene 6 reagent (Roche Diagnostics, Indianapolis, Ind.). Cells (5000/well) were plated 18 h before transfection in a 96 well plate. The Cells were transfected with Gal-4-responsive reporter pFRLuc (150 ng, Stratagene, La Jolla Calif.) and the receptor expression vector pGal-4-VDR-LBD (10 ng), along with Fugene 6 reagent (0.2 μl/well). The DNA-Fugene complex was formed by incubating the mixture for 30 min at room temperature. The cells were transfected in triplicate for 5 h, and treated with various concentrations of VDR ligands (form 0.01 nM to 10,000 nM concentration range) 18 h post-transfection. The luciferase activity was quantified using Steady-Glo reagent kit (Promega, Madison, Wis.) as per manufacturer's specifications.

KERtr cells = test: Keratinocyte proliferation assay; assay type: cell-based, Human; conditions: BrdU incorporation
Procedure: 5. The Keratinocyte Proliferation Assay
This Assay is indicative for the treatment of psoriasis.
(5) The Keratinocyte Proliferation Assay:
KERtr cells (Human skin keratinocyte transformed with a retrovirus vector, obtained from ATCC) were plated in 96-well flat-bottomed plates (3000 cells/well) in 100 μl keratinocyte serum free medium supplemented with bovine pituitary extract in the absence of EGF (Life Technologies, Rockville, Md.) and incubated at 37° C. for two days. The cells were treated with various concentrations of VDR ligands (ten-fold serial dilution from 10,000 nM to 0.1 nM in triplicate), dissolved in 100 μl keratinocyte serum free medium supplemented with bovine pituitary extract in the absence of EGF and incubated at 37° C. for 72 hr. […] Potency values (IC50) values were determined as the concentration (nM) of compound that elicited a half-maximal response.

[1] = Mouse hypercalcemia assay; conditions: six day hypercalcemia test, oral gavage, serum ionized calcium
Procedure: The Mouse Hypercalcemia Assay
The Mouse Hypercalcemia Assay is a six day hypercalcemia test for toxicity and selectivity. Acceptable test results are levels greater than 300 μg/kg/day. Preferred assay results are levels greater than 1000 μg/kg/day.
(4) Materials and Method for The Mouse Hypercalcemia Assay:
Weanling, virus-antibody-free, five to six weeks old female DBF mice (Harlan, Indianapolis, Ind.) are used for all the studies. Animals are allowed to acclimate to local vivarium conditions for 2 days. […] The animals then are divided into groups with 4-5 mice per group. Different doses of test compounds prepared in 10% Ethanol and 90% sesame oil are administered to mice orally via gavage for 6 days. 1α-25(OH)2D3 0.5 μg/kg/d was also given to one group of mice as the positive control. […] Raw data of group differences is assessed by analysis of variance (ANOVA) using Fisher's protected least significant difference (PLSD) where the significance level was P<0.05.

RXR-VDR heterodimer = target: T2, RXR-VDR heterodimer (Homo sapiens, UniProt P11473); test: RXR-VDR heterodimerization assay (SaOS-2 cells); assay type: cell-based; conditions: luciferase reporter, Table 1
T2 construct: Add the Gal-4-RXR-DEF and VP16-VDR-LBD; expressed in transfected cells; host or cells: SaOs-2 cells
T2 sequence (P11473 127-423 limits assumed): T1 sequence (P11473 127-423 limits assumed)
T2 sequence (P19793 201-462 partner limits assumed): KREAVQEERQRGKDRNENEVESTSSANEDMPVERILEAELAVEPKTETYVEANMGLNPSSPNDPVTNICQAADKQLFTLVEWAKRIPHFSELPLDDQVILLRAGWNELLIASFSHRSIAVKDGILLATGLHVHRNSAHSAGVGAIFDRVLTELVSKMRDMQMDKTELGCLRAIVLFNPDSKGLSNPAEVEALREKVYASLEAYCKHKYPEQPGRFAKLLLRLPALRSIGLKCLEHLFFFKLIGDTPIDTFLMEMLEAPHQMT
Excerpt: 1. The RXR-VDR Heterodimer Assay:
This assay provides the VDR activity of a test compound.
(1) Materials and Method for RXR-VDR Heterodimerization Assay:
Transfection/Treatment Media: • D-MEM Low Glucose Without Phenol Red only
Flat well Plates: • Use well plate to plate cells • Use Deep well plate sterile to make up treatment media.
Luciferase Assay Reagent: • Use Steady-Glo Luciferase Reagent from Promega (Cat #E2550) Consists of: • a. E2533 Assay Substrate, lyopholized product and • b. E2543 Assay Buffer. • Thaw at room temperature • Store Day 1: Cell Plating: • Cell Harvesting • Aspirate media from culture flask, rinse cells with HBSS and aspirate. • Add trypsin and incubate. • When cells appear detached, resuspend cells in growth media. • Transfer into a new flask with fresh growth media for passaging the cells. • Plate well plates and two extra plates A. Cell Count • Mix the cell suspension using pipette • Use Hematocytometer to count the cells • Load cell suspension onto the hemocytometer chamber • Count cells.
Step 1: DNA and Media • Add plain DMEM media to tubes for mixing the DNA • Add the Reporter gene pFR-LUC • Add the Gal-4-RXR-DEF and VP16-VDR-LBD
Step 2: FuGENE and Media • Prepare plain DMEM media in a ubes for mixing PuGENE • Add FuGENE 6 Transection Reagent • Incubate
Step 3: FuGENE, DNA and Media Complex • Add FuGENE Media complex from step 2 to DNA Media complex from step1 • Incubate
as §1, with “Assay: […]” for “Assay:”

[2] = Rattus norvegicus, 48 h, Table 1
[3] = 72 hr, Table 2, read-out: Kera. Prolif. IC50
[4] = Rattus norvegicus, 48 h, Table 3 comparison compounds
[5] = Homo sapiens, Keratinocyte, 72 h, Table 4 comparison compounds, read-out: Kera. Prolif. IC50

Row | Compound | EC50 (VDR) [nM] | pEC50 (rat osteocalcin promoter; Table 1) | pIC50 (KERtr cells; [3]) | pEC50 (RXR-VDR heterodimer) | also measured
1 | CCC(CC)(c1ccc(OCC(O)C(C)(C)C)c(C)c1)c1ccc(C(=O)N(C)C)o1 (racemic) [Ex. 2, 3′-[4-(2-hydroxy-3,3-dimethylbutoxy)-3-methylphenyl]-3′-[5-dimethylaminocarbonyl-2-furanyl]pentane] | 25 | – | – | – | pEC50 (rat osteocalcin promoter; [2]): 8.52
2 | CCC(CC)(c1ccc(OCC(O)C(C)(C)C)c(C)c1)c1ccc(C(=O)N(C)C)o1 (single isomer, unassigned) [Ex. 3, 3′-[4-(2-hydroxy-3,3-dimethylbutoxy)-3-methylphenyl]-3′-[5-dimethylaminocarbonyl-2-furanyl]pentane] | 391 | 8.34 and 8.60 | 9.00 | – | Mouse Hypercal ([1]; Table 1): >2000 µg/kg/day
3 | CCC(CC)(c1ccc(OCC(O)C(C)(C)C)c(C)c1)c1ccc(C(=O)N(C)C)o1 (single isomer, unassigned) [Ex. 4, 3′-[4-(2-hydroxy-3,3-dimethylbutoxy)-3-methylphenyl]-3′-[5-dimethylaminocarbonyl-2-furanyl]pentane] | 333 | 8.70 and 9.00 | 8.40 | – | Mouse Hypercal ([1]; Table 1): >2000 µg/kg/day
4 | CCc1cc(C(CC)(CC)c2ccc(C(=O)N(C)C)o2)ccc1OCC(O)C(C)(C)C (single isomer, unassigned; enantiomer 1) [Ex. 10, 3′-[4-(2-hydroxy-3,3-dimethyl-butoxy)-3-ethylphenyl]-3′-[5-dimethylaminocarbonyl-2-furanyl]pentane enantiomer 1] | 191 | – | 8.15 | – | Mouse Hypercal ([1]; Table 1): >1000 µg/kg/day
5 | CCCc1cc(C(CC)(CC)c2ccc(C(=O)N(C)C)o2)ccc1OCC(O)C(C)(C)C (single isomer, unassigned; enantiomer 1) [Ex. 12, 3′-[4-(2-hydroxy-3,3-dimethyl-butoxy)-3-n-propyl-phenyl]-3′-[5-dimethylaminocarbonyl-2-furanyl]pentane enantiomer 1] | 187 | – | 7.77 | 6.73 | –
6 | CCC(CC)(c1ccc(OCC(O)CO)c(C)c1)c1ccc(OCC(O)C(C)(C)C)c(C)c1 (centres unmarked) [BB, 3-(4-{1-Ethyl-1-[4-(2-hydroxy-3,3-dimethyl-butoxy)-3-methyl-phenyl]-propyl}-2-methyl-phenoxy)-propane-1,2-diol, reference compound] | – | – | – | – | pEC50 (rat osteocalcin promoter; [4]): 8.08; pIC50 (KERtr cells; [5]): 8.00; Mouse Hypercal μg/Kg/d ([1]; Table 3 comparison compounds): >=20 μg/Kg/d
7 | Cc1cc(C2(c3ccc(OCC(=O)C(C)(C)C)c(C)c3)CCCCC2)ccc1OCC(=O)C(C)(C)C [CC, 1-(4-{1-[4-(3,3-Dimethyl-2-oxo-butoxy)-3-methyl-phenyl]-cyclohexyl}-2-methyl-phenoxy)-3,3-dimethyl-butan-2-one, reference compound] | – | – | – | – | pEC50 (rat osteocalcin promoter; [4]): < 6.00
8 | CCC(CC)(c1ccc(OCC(=O)C(C)(C)C)c(C)c1)c1ccc(OCC(=O)C(C)(C)C)c(C)c1 [DD, reference compound] | – | – | – | – | pEC50 (rat osteocalcin promoter; [4]): 7.51; pIC50 (KERtr cells; [5]): 5.97; Mouse Hypercal ([1]; Table 3 comparison compounds): 1000 µg/kg/day
9 | CCC(CC)(c1ccc(OCC(=O)C(C)(C)C)c(C)c1)c1ccc(OC[C@H](O)C(C)(C)C)c(C)c1 [EE, reference compound] | – | – | – | – | pEC50 (rat osteocalcin promoter; [4]): 6.47; Mouse Hypercal ([1]; Table 3 comparison compounds): 1000 µg/kg/day
10 | CCN(CC)C(=O)c1ccc(C(CC)(CC)c2ccc(OCC(=O)C(C)(C)C)c(C)c2)o1 [Ex 7, 3′-[4-(2-oxo-3,3-dimethyl-butoxy)-3-methylphenyl]-3′-[5-diethylaminocarbonyl-2-furanyl]-pentane] | – | 7.02 | 7.64 | – | Mouse Hypercal ([1]; Table 1): >9000 µg/kg/day
11 | CCC(O)(CC)COc1ccc(C(CC)(CC)c2ccc(C(=O)N(C)C)o2)cc1C [Ex 14, 3′-[4-(2-hydroxy-2-ethylbutoxy)-3-methylphenyl]-3′-[5-dimethylaminocarbonyl-2-furanyl]pentane] | 635 | – | – | 6.98 | pEC50 (rat osteocalcin promoter; [2]): 7.00
12 | CCC(C)c1cc(C(CC)(CC)c2ccc(C(=O)N(C)C)o2)ccc1OCC(=O)C(C)(C)C (centres unmarked) [Ex. 5, 3′-[4-(2-oxo-3,3-dimethylbutoxy)-3-(2-butyl)phenyl]-3′-[5-dimethylaminocarbonyl-furan-2-yl]pentane] | 129 | 7.36 | – | 6.87 and 7.40 | pEC50 (rat osteocalcin promoter; [2]): 7.48; pIC50 (KERtr cells; Homo sapiens, Keratinocyte, 72 h, Table 2, read-out: Kera. Prolif. IC50): 6.00
13 | CCNC(=O)c1ccc(C(CC)(CC)c2ccc(OCC(=O)C(C)(C)C)c(C)c2)o1 [Ex. 6, 3′-[4-(2-oxo-3,3-dimethyl-butoxy)-3-methylphenyl]-3′-[5-ethylaminocarbonyl-2-furanyl]-pentane] | 315 | < 6.00 | 6.95 | 6.49 | –
14 | CCC(CC)(c1ccc(OCC(=O)C(C)(C)C)c(C)c1)c1oc(C(=O)N(C)C)cc1C [Ex. 8, 3′-[4-(2-oxo-3,3-dimethyl-butoxy)-3-methylphenyl]-3′-[5-dimethylaminocarbonyl-3-methyl-2-furanyl]-pentane] | 758 | 6.90 | < 6.00 | 6.81 | –
